Measurements published in US8637702B2, “Derivatives of N-hydroxybenzamide for treating HIV infections” (Italfarmaco S.p.A., priority 2009, dated 2014).

What was measured:
[1] = tested on: HIV-1 expression in ACH-2 cells; experiment: Induction of the HIV-1 expression in the ACH-2 cell line (p24); assay type: cell-based; conditions: 24 hours
Protocol: ACH2 cells were obtained through AIDS Research and Reference Reagent Program, Division of AIDS, National Institute of Allergy and Infectious Diseases, National Institutes of Health, Bethesda, Md. The cells were cultured in flasks, washed in RPMI and resuspended in RPMI/10% FCS at a concentration of 2×10^6 cells/mL. […] After 24 hours of incubation at 37° C./5% CO2, 50 μL of supernatant were removed for the cytotoxicity assay of the lactate dehydrogenase (LDH) and Triton-X-100 (0.5% vol/vol final concentration) were added to each culture. The p24 assays of the lysates were performed immediately.
p24 was measured using specific antibodies immobilized on magnetic beads as previously described [Nold M. F. et al. J. Immunol. […] The levels of p24 for each experiment without HDAC inhibitors were fixed at 1.0 and the increase values by the number of times for each experiment and each analogous were calculated.

HDAC3 = HDAC3 (Homo sapiens, UniProt O15379); experiment: Inhibition of histone deacetylase isoforms, HDAC3
HDAC3, sequence (O15379 whole entry, canonical isoform): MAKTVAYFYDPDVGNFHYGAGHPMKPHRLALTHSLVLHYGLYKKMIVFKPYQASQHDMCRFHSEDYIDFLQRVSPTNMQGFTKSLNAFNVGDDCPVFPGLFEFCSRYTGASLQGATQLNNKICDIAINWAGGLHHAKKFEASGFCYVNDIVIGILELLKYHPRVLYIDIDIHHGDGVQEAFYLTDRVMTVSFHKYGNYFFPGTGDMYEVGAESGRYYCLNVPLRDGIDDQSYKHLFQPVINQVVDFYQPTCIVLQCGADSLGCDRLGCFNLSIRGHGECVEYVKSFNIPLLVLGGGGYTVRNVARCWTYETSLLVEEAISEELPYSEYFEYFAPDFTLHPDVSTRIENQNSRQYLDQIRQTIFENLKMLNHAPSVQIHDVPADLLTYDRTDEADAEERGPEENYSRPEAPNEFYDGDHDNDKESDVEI
HDAC3, sequence (Q9Y618 395-489 partner limits assumed): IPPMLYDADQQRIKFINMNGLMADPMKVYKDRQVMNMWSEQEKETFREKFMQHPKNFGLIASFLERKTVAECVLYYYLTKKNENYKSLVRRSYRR
Protocol: Recombinant human enzymes were acquired from BPS Biosciences (CA, USA). Isoforms of Class I HDAC1, 2, 3; HDAC6, 10 of Class IIb and Class IV HDAC11 were tested using the Fluor-de-Lys fluorogenic synthetic substrate (Enzo Life Sciences, Plymouth Meeting, Pa.). […] The recombinant human HDAC8 assay was performed using HDAC8 Fluorimetric Drug Discovery Kit (Enzo) according to the manufacturer instructions. Each inhibitor was dissolved in DMSO and then further diluted in an assay buffer. […] The assays were performed by pre-incubating each enzyme with the inhibitors for 15 minutes at 37° C. The reaction was started by adding the substrate at 37° C. and allowed to proceed for 60 minutes. The fluorescent signal was generated by adding 50 μL of a twice concentrated developer solution 2 (Enzo) containing trichostatin A 4 μM.

HDAC4 = HDAC4 (Homo sapiens, UniProt P56524); experiment: Inhibition of histone deacetylase isoforms, HDAC4
HDAC4, sequence (P56524 whole entry, canonical isoform): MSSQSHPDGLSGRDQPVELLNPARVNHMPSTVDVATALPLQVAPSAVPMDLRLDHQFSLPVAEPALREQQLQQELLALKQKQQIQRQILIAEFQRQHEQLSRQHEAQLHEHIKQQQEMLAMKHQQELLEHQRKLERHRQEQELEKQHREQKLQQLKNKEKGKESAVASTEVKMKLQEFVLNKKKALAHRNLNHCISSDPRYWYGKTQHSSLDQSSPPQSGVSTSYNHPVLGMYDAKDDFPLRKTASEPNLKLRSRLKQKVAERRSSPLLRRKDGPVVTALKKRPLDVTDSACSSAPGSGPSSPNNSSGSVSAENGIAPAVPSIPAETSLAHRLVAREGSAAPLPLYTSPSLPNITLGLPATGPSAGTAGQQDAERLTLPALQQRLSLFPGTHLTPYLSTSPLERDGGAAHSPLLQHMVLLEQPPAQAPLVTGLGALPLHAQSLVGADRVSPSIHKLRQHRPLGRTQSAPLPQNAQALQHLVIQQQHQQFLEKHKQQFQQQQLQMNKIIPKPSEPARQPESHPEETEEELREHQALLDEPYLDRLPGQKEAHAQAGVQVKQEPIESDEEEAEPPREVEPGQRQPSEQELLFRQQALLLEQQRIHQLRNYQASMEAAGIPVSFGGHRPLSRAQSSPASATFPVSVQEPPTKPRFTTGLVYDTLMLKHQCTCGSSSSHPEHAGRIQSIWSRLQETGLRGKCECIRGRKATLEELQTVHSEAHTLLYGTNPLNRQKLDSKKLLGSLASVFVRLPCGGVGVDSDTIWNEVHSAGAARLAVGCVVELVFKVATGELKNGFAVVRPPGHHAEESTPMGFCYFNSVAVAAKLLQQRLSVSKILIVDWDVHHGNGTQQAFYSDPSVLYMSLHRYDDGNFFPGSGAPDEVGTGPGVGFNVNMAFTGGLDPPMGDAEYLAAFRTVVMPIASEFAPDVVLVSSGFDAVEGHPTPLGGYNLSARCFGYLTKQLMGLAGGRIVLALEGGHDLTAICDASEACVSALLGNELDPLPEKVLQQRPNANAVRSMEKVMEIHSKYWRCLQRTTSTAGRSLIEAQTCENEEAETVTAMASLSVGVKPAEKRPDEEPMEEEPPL
Protocol: (§1) Recombinant human enzymes were acquired from BPS Biosciences (CA, USA). Isoforms of Class I HDAC1, 2, 3; HDAC6, 10 of Class IIb and Class IV HDAC11 were tested using the Fluor-de-Lys fluorogenic synthetic substrate (Enzo Life Sciences, Plymouth Meeting, Pa.). […] Each inhibitor was dissolved in DMSO and then further diluted in an assay buffer. […] The assays were performed by pre-incubating each enzyme with the inhibitors for 15 minutes at 37° C. The reaction was started by adding the substrate at 37° C. and allowed to proceed for 60 minutes. The fluorescent signal was generated by adding 50 μL of a twice concentrated developer solution 2 (Enzo) containing trichostatin A 4 μM.

HDAC10 = target: T1, HDAC10 (Homo sapiens, UniProt Q969S8); experiment: Inhibition of histone deacetylase isoforms, HDAC10
T1 sequence (Q969S8 1-669): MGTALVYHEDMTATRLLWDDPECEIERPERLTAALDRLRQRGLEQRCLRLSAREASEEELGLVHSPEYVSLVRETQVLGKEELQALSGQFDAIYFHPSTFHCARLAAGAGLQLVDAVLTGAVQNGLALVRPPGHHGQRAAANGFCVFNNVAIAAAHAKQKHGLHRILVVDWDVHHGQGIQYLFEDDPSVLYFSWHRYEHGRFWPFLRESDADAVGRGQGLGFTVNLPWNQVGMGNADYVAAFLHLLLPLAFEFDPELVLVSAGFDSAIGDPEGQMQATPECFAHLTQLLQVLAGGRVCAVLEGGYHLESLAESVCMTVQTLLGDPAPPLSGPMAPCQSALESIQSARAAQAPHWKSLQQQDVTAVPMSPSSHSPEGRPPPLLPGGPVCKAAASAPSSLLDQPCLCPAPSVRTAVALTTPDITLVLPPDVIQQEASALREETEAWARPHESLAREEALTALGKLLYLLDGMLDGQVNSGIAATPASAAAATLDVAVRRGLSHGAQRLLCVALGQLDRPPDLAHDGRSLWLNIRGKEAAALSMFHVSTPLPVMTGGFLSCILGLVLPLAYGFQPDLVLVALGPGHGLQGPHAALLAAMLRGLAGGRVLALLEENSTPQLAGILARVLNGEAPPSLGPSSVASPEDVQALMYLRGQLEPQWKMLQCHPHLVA
Protocol: as §1

HDAC11 = target: T2, HDAC11 (Homo sapiens, UniProt Q96DB2); experiment: Inhibition of histone deacetylase isoforms, HDAC11
T2 sequence (Q96DB2 1-347): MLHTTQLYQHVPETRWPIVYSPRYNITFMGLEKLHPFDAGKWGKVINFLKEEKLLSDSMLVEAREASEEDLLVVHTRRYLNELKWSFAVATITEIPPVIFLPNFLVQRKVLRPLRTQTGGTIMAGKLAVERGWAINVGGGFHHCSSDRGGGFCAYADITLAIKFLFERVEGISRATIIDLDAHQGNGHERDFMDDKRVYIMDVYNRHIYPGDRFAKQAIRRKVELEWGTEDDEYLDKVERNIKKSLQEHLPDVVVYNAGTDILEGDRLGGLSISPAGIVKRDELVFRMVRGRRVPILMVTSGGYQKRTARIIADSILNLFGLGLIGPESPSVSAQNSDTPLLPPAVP
Protocol: as §1

SMILES: O=C(NO)c1ccc(NC(=O)[C@H](Cc2ccc3ccccc3c2)NC(=O)c2ccccc2)cc1 [Compound g, 4-(2(S)-benzoylamino-3-naphtalen-2-yl-propionylamino)-N-hydroxy-benzamide]
- increase of the number of times in the level of p24 with respect to control ([1]; 31 nM): 2 times
- increase of the number of times in the level of p24 with respect to control ([1]; 63 nM): 3 times
- increase of the number of times in the level of p24 with respect to control ([1]; 125 nM): 10 times
- increase of the number of times in the level of p24 with respect to control ([1]; 250 nM): 27 times
- increase of the number of times in the level of p24 with respect to control ([1]; 250 nM, listed as compound g): 30 times
- IC50 (HDAC3): 0.246 µM
- IC50 (HDAC4): 3.11 µM
- IC50 (HDAC10): 0.132 µM
- IC50 (HDAC11): 0.441 µM

SMILES: O=C(NO)c1ccc(NC(=O)[C@H](Cc2ccc3ccccc3c2)NC(=O)c2ccc3c(c2)OCO3)cc1 [Compound t, benzo[1,3]dioxole-5-carboxylic acid [1(S)-(4-hydroxycarbamoyl-phenylcarbamoyl)-2-naphtalen-2-yl-ethy]-amide]
- increase of the number of times in the level of p24 with respect to control ([1]; 31 nM): 1 times
- increase of the number of times in the level of p24 with respect to control ([1]; 63 nM): 2 times
- increase of the number of times in the level of p24 with respect to control ([1]; 125 nM): 10 times
- increase of the number of times in the level of p24 with respect to control ([1]; 250 nM): 33 times
- increase of the number of times in the level of p24 with respect to control ([1]; 250 nM, listed as compound t): 30 times
- IC50 (HDAC3): 0.107 µM
- IC50 (HDAC4): > 10 µM
- IC50 (HDAC10): 0.276 µM
- IC50 (HDAC11): 0.336 µM
